Measurements as given in the supplement of paper PMC10883282.
Counter-ions that a name gives are not always drawn. ± gives the standard deviation of the averaged measurements.

Tested on: G401
Test: relative viability vs DMSO control (72 h) (fraction); higher = more viable cells
Procedure, shortened: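 Sarcoma cell lines were seeded in 384-well plates at densities set to reach 80–90% confluence. After 24 h, 2.5 µl of serially diluted compound was added (source plates 10 mM to 0.0002 mM), and plates were held 72 h at 37 °C, 5% CO2, with 0.1% DMSO vehicle and a 5 µM positive control. Relative viability came from ATPLite readings as percent growth, averaged over up to triplicate wells. Data were rescaled so full viability equals 1 and none equals 0.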

SMILES	relative viability (2 pM)	relative viability (5 pM)	relative viability (15 pM)	relative viability (50 pM)	relative viability (0.00014 µM)	relative viability (0.00041 µM)	relative viability (0.0012 µM)	relative viability (0.0037 µM)	relative viability (0.011 µM)	relative viability (200 fM)	relative viability (600 fM)	relative viability (0.00017 µM)	relative viability (0.00051 µM)	relative viability (0.00152 µM)	relative viability (0.00457 µM)	relative viability (0.01372 µM)	relative viability (0.04115 µM)	relative viability (0.1235 µM)	relative viability (0.3704 µM)	relative viability (1.111 µM)	relative viability (3.333 µM)	relative viability (10 µM)
COc1cc2c(cc1O)CCN[C@]21CS[C@@H]2c3c(OC(C)=O)c(C)c4c(c3[C@H](COC1=O)N1[C@@H]2[C@H]2c3c(cc(C)c(OC)c3O)C[C@@H]([C@@H]1O)N2C)OCO4 [Trabectedin]	1.03 ± 0.017	1.02 ± 0.025	0.993 ± 0.018	0.991 ± 0.014	0.832 ± 0.043	0.516 ± 0.024	0.0964 ± 0.077	0.126 ± 0.016	0.0862 ± 0.0056	1.05 ± 0.032	1.03 ± 0.04											
CN1CCN(c2ccc3nc(-c4c(N)c5c(F)cccc5[nH]c4=O)[nH]c3c2)CC1 [Dovitinib]												1.02 ± 0.045	1.014 ± 0.0059	1.04 ± 0.021	1.018 ± 0.0017	1 ± 0.023	1.01 ± 0.051	0.966 ± 0.034	0.92 ± 0.019	0.632 ± 0.069	0.256 ± 0.013	0.13 ± 0.0053
C[C@@H]1COCCN1c1cc(-c2ccnn2C)c2ccnc(-c3ccn[nH]3)c2n1												0.996 ± 0.018	0.9815 ± 0.0068	1 ± 0.011	1.01 ± 0.023	0.997 ± 0.02	0.915 ± 0.026	0.803 ± 0.043	0.675 ± 0.0044	0.598 ± 0.0066	0.517 ± 0.012	0.486 ± 0.012
Cn1cc(-c2cc3c(N4CCN(c5ncc([C@@](C)(N)c6ccc(F)cc6)cn5)CC4)ncnn3c2)cn1 [Avapritinib]												0.895 ± 0.086	0.91 ± 0.036	0.907 ± 0.046	0.901 ± 0.023	0.922 ± 0.059	0.926 ± 0.074	0.918 ± 0.032	0.842 ± 0.033	0.701 ± 0.044	0.627 ± 0.012	0.506 ± 0.011
C[C@]1(O)C[C@@H](c2nc(-c3ccc4ccc(-c5ccccc5)nc4c3)c3c(N)nccn32)C1 [Linsitinib]												1 ± 0.063	0.974 ± 0.026	1.02 ± 0.048	0.955 ± 0.013	0.992 ± 0.023	0.894 ± 0.034	0.791 ± 0.049	0.668 ± 0.013	0.627 ± 0.007	0.562 ± 0.017	0.466 ± 0.026
Cc1nc(NC(=O)N2CCC[C@H]2C(N)=O)sc1-c1ccnc(C(C)(C)C(F)(F)F)c1 [Alpelisib]												1 ± 0.066	1.01 ± 0.04	0.993 ± 0.041	0.946 ± 0.075	0.939 ± 0.017	0.906 ± 0.079	0.864 ± 0.021	0.777 ± 0.036	0.697 ± 0.07	0.577 ± 0.053	0.504 ± 0.052
COc1cccc2c1C(=O)c1c(O)c3c(c(O)c1C2=O)C[C@@](O)(C(=O)CO)C[C@@H]3O[C@H]1C[C@H](N)[C@H](O)[C@H](C)O1 [Doxorubicin Hydrochloride]												1.03 ± 0.011	1.02 ± 0.018	1 ± 0.041	0.937 ± 0.021	0.8493 ± 0.0066	0.681 ± 0.019	0.476 ± 0.041	0.079 ± 0.017	0.0407 ± 0.0027	0.096 ± 0.0082	0.101 ± 0.0054
CNC(=O)c1ccc(-c2cnc3ncc(Cc4ccc5ncccc5c4)n3n2)cc1F [Capmatinib]												1.01 ± 0.023	0.988 ± 0.024	1.03 ± 0.027	1.04 ± 0.019	0.977 ± 0.03	1.01 ± 0.058	0.9706 ± 0.0066	1.02 ± 0.0027	0.981 ± 0.01	0.929 ± 0.012	0.877 ± 0.053
Cc1ccc(NC(=O)c2ccc(CN3CCN(C)CC3)cc2)cc1Nc1nc(-c2cccnc2)cs1 [Masitinib]												0.973 ± 0.058	0.9736 ± 0.0054	0.9669 ± 0.0091	0.9556 ± 0.0058	0.979 ± 0.026	0.971 ± 0.047	0.931 ± 0.024	0.843 ± 0.056	0.687 ± 0.0084	0.388 ± 0.014	0.0983 ± 0.005
